We go through two molecules from patent US11325892B2, “Compounds and methods for treating cancer” (Mayo Foundation for Medical Education and Research, priority 2014, dated 2022).

The structures appear in SMILES notation.

For assay [1], the system named is GADD45a, DDIT3, HERPUD1 transcripts in THJ29T, THJ16T, and KTC2. Put plainly: QPCR of UPR markers in ATC cells. It counts as cell-based. The note with it: 10 μM, 24 hours; all cell lines; OA restored expression to control levels. The source says: RNA isolation, preparation of cDNA, and QPCR performed as previously described (Tun H W, Marlow L A, von Roemeling C A, Cooper S J, Kreinest P, Wu K, Luxon B A, Sinha M, Anastasiadis P Z, Copland J A. Pathway signature and cellular differentiation in clear cell renal cell carcinoma. PLoS One. 2010; 5(5):e10696). TaqMan®CDFAM™ dye-labeled probes: GAPDH(Hs99999905_ml), POLR2A(Hs00172187_ml), SCD/(Hs01682761_HSPA5(Hs99999174_ml), GADD45A(Hs00169255_ml), DD/T3(Hs01090850_ml), and HERPUD/(Hs01124269_ml). Fold-change comparisons between normal vs. tumor, and DMSO vs. drug treated samples calculated using the […] method (Schmittgen T D, Livak K J. Analyzing real-time PCR data by the comparative C(T) method. Nat Protoc. 2008; 3 (6): 1101-8).
Exogenous application of MUFAs, such as oleic or palmitoleic acid, can rescue the proliferative defects generated by SCD1 inhibition as these are the primary products of SCD1 enzymatic activity (Roongta U V, Pabalan J G, Wang X, Ryseck R P, Fargnoli J, Henley B J, Yang W P, Zhu J, Madireddi M T, Lawrence R M, Wong T W, Rupnow B A. Cancer cell dependence on unsaturated fatty acids implicates stearoyl-CoA desaturase as a target for cancer therapy. Mol Cancer Res. 2011; 9(11):1551-61). THJ29T, THJ16T and KTC2 cells were treated with the EC50 dose of A939572 or MF-438 for 72H with or without 5 μM of oleic acid (OA). […]

Another assay addresses T1, SCD1 (Homo sapiens, UniProt O00767).
T1 sequence (O00767 1-359): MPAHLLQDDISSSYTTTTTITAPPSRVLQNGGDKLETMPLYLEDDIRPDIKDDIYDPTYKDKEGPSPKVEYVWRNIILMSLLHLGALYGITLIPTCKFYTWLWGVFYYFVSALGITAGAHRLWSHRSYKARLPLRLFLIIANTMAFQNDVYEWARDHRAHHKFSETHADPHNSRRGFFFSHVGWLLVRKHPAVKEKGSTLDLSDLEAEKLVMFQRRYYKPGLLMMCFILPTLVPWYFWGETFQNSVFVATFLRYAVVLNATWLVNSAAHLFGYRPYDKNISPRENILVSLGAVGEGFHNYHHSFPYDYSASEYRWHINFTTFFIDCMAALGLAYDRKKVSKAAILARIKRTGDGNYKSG
The note with it: known inhibitors; cited from earlier work.

The test system of assay [2] is A498, ACHN, and Caki1 cell lines. Nature of the assay: Oleic acid (OA) rescue assay of cell proliferation in ccRCC cells. It counts as cell-based. The note with it: EC50 dose of compound with OA (5 μg/μL); all three cell lines. How it is done:
(§1) Cells were seeded at 5,000 cells/well in clear-bottom 96-well plates in triplicate in Maintenance Media. Drug treatment was applied at a concentration of 1:1000 in reduced serum (3%) Maintenance Media. After 72 hours, cells were washed with PBS, and stored at −80° C. prior to analysis using CyQuant® Proliferation Analysis Kit (Invitrogen) as per manufacturers' protocol for relative fluorescence units. Alternatively, cells were plated 2×10^5/well in 12-well plates (Midwest Scientific) in triplicate prior to drug treatment. After 120 hour treatment, cell number was established using a Coulter Particle Counter (Beckman). Or, cells were plated (0.5 or 1×10^5/well) in 24-well plates (Midwest Scientific), 3×. After 72 hour treatment, cell number established using Coulter Particle Counter (Beckman). Oleic acid-albumin (Sigma Aldrich) was added to media at 5 μM, and was applied adjuvant to drug treatment. Drug stocks were prepared in DMSO (Sigma) at 1000×. EC50 dosing per cell line was calculated using CalcuSyn® analytical software.
A498, ACHN, and Caki1 cell lines were treated with the EC50 dose of each MF-438, ChemBL375265, SSI-1, SSI-4, SSI-3, and SSI-2 with or without concomitant application of OA (5 μg/μL). […] Representative images of A498 cell morphology and density treated with each compound +/−OA are shown in (FIG. 2B).

Assay [3] concerns HK2, a transformed renal epithelial cell line. Nature of the assay: High-throughput proliferative screen, non-cancerous cells. The class given is cell-based. How it is done:
as §1
In order to identify potential SCD1 inhibitors, a high-throughput proliferative-based screening method was used, with four ccRCC cell lines including A498, ACHN, Caki1, and Caki2. The SCD1 inhibitor MF-438 was included as a positive control. Known compounds ChemBL375265 (Liu G, Lynch J K, Freeman J, et al. Discovery of potent, selective, orally bioavailable stearoyl-CoA desaturase 1 inhibitors. Journal of medicinal chemistry. Jun. 28, 2007; 50(13): 3086-3100) (SetA.100) and SAR707 (Voss M D, Zoller G, Matter H, et al. Discovery and pharmacological characterization of SAR707 as novel and selective small molecule inhibitor of stearoyl-CoA desaturase (SCD1). European journal of pharmacology. May 5, 2013; 707(1-3): 140-146) (TC03.100) were included as single-blinded positive controls, and are indicated with an asterisk (*). […]

As for `CNC(=O)c1cccc(NC(=O)N2CCC(Oc3ccccc3Cl)CC2)c1` [A939572], the “transcription of UPR markers GADD45a, DDIT3, HERPUD1” value in assay [1] is “transcriptionally upregulated”. Also, the 50% inhibitory concentration (IC50) – broadly, the midpoint of a concentration-inhibition curve – at SCD1 was 37 nM.

`Cc1nnc(-c2ccc(N3CCC(Oc4ccccc4C(F)(F)F)CC3)nn2)s1` [MF-438, 2-methyl-5-(6-(4-(2-(trifluoromethyl)phenoxy)piperidin-1-yl)pyridazin-3-yl)-1,3,4-thiadiazole]: the “rescue of cell proliferation with OA” value in assay [2] is “Near total rescue of cell proliferation”. The “reduction in cell proliferation” value in assay [3] is given as “approximately 20%”.
